The results in this text go back to ChEMBL document CHEMBL4152332, “Discovery and synthesis of novel magnolol derivatives with potent anticancer activity in non-small cell lung cancer” (Eur J Med Chem, 2018).

In general, IC50 refers to the concentration at which inhibition is half-maximal.

One assay concerns NCI-H1975. Put plainly: Induction of apoptosis in human NCI-H1975 cells assessed as decrease in Cdk4 level after 24 hrs by Western blot analysis. The assay is classed as functional, cell-based. In general terms: Immunoblotting shows a protein as a band on a membrane.
The subject of another assay is NCI-H460. Put plainly: Antiproliferative activity against human H460 cells after 72 hrs by MTT assay. To be noted: NCI-H460, 72 h. It counts as functional, cell-based. On the technique in general: Tetrazolium assays rely on reduction of a dye to a coloured formazan, in cell work by metabolically active cells.

Consider `C=CCc1ccc(O)c(-c2cc(CC=C)cc(CN3CCC(N)CC3)c2O)c1`, for which the Activity result in the assay on NCI-H1975 is “Dose-dependent effect”. In addition, half-maximal inhibition with NCI-H460 (IC50) required 5.98 µM.
